In patent publication US8883504B2, “Cell differentiation suppressing agent, method of culturing cells using the same, culture solution, and cultured cell line” (Asahi Kasei Kabushiki Kaisha, priority 2003, dated 2014):

Columns and labels:
Oct-3/4 gene = Oct-3/4 gene expression level by real time PCR (ES cell differentiation inhibition assay 2); assay type: cell-based, mouse; details: D3ES cells, 7 days
Procedure: For the D3ES cells prepared by the method described in (3) preparation of a mouse ES cell of Example 1, 8×10^4 cells were seeded in a 10 cm-diameter cell culture dish coated previously with a 0.1% aqueous gelatin solution to make 10 mL of the ES cell assay medium. 1 mL of the differentiation inhibiting agent A to F, which were dissolved in dimethylsulfoxide (DMSO) or culture medium or their mixture to make 40 μg/mL per each dish, or ESGRO, which was adjusted to make 10^4 unit/mL, was added, and culturing was carried out at 37° C. in 5% […] incubator for 7 days. To the culture medium was added DMSO to make the final concentration 0.1% or lower.
A total RNA was extracted from the ES cells cultured by the method described in (1) ES cell differentiation inhibition assay 2 as described above, by using ISOGEN (K.K. Nippon Gene, Japan made) by the attached method. First, the medium was removed from the dish after the culture, the cells were washed twice with 10 mL of PBS, and dissolved in 1 mL of ISOGENE. After leaving stand at room temperature for 5 minutes, the solution was collected in a 1.5 mL Eppendorf tube. 0.2 mL of chloroform (Wako Pure Chemical Industries made) was added, shaken for 15 seconds and, then, left stand at room temperature for 2 or 3 minutes. The solution was centrifuged at 4° C. at 10000 rpm for 10 minutes by using a micro centrifuge (TOMY SEIKO Corp. made). 400 μL of the supernatant was transferred to a fresh 1.5 mL Eppendorf tube, 500 μL of isopropanol (Wako Pure, Chemical Industries made) was added, and left stand at room temperature for 10 minutes, and, then, centrifuged at 4° C. at 10000 rpm for 10 minutes by using the micro centrifuge. After the supernatant was removed, 1 mL of a 70% aqueous ethanol solution was added followed by shaking and, then, centrifugation was carried out at 4° C. at 10000 rpm for about 5 minutes by using, the micro centrifuge. After the supernatant was removed, a precipitation was dried and dissolved in 30 μL of distilled water to obtain the total RNA solution.
2 μg of the thus obtained total RNA was used as a template to synthesize a cDNA according to the attached protocol by using Deoxyribonuclease I (Amplification Grade)(Invitrogen Corp. made), Oligo(dT) 12-18 primer (Invitrogen Corp. made, 18418-012) and Omniscript reverse transcriptase (QIAGEN Corp, made). Thus, a reaction solution was prepared by adding 1 μL of 10× DNaseI Reaction Buffer, 1 μL of 10× DNaseI (all were made by Invitrogen Corp.) and distilled water to 2 μg of total RNA to make 10 μL in total, and the mixture was incubated at room temperature for 10 minutes. 1 μL of 25 mM EDTA solution was added and heated at 65° C. for 10 minutes. The mixture was cooled to room temperature, and then, 2 μL of 10× Buffer RT, 2 μL of 5 mM dNTP Mix, 2 μL of Oligo(dT) 12-18 primer, 0.25 μL of RNaseOUT (Invitrogen Corp. made, 10777-019) and 1 μL of Omniscript Reverse Transcriptase were added, and RNase-free purified water was added to give the total volume of 20 μL, and the mixture was incubated at 37° C. for 60 minutes to obtain cDNA solution. A portion of the synthesized cDNA obtained in such the way was diluted 5 folds with distilled water, and 2 μL of the solution was used as the template to conduct PCR by using Light Cycler-Fast Start DNA Master SYBR Green I Kit (Roche Diagnostics Corp. made) according to the attached protocol. The expression levels of the Oct-3/4 gene and glyceraldehyde-3-phosphate dehydrogenase (GAPDH) gene as the internal standard were measured. For amplifying the Oct-3/4 gene, sense primer OCT3 up (SEQ ID No.: 1) and antisense primer Oct3 down (SEQ ID No.: 2) were used, and for amplifying the GAPDH gene, sense primer GAPDH up (SEQ ID No.: 3) and antisense primer GAPDH down (SEQ ID No.: 4) were used. The composition of the PCR reaction solution and the reaction condition will be each presented below.

Nanog gene = Nanog gene expression level by real time PCR (ES cell differentiation inhibition assay 3); assay type: cell-based, mouse; details: D3ES cells, 4 μg/mL, 1 day, GAPDH internal standard, FIG. 7
Procedure: For the D3ES cells prepared by the method described in (3) preparation of a mouse ES cell of Example 1, 7.85×10^5 cells were seeded in a 10 cm-diameter cell culture dish coated previously with a 0.1% aqueous gelatin solution to make 10 mL of the ES cell assay medium. The differentiation inhibiting agent B of the present invention in the final concentration of 4 μg/mL or ESGRO in the final concentration of 1×10^3 unit/mL was added to each dish, and culturing was carried out at 37° C. in 5% CO2 incubator for 1 day.
The total RNA was extracted from the ES cell cultured by the method shown in (3) ES cell differentiation inhibition assay 3 as described above by using ISOGEN (K.K. Nippon Gene Corp. Japan made) by the attached method. In this method, the cell was collected in a 15 mL sterilized tube, centrifuged at 1,000 rpm for about 5 minutes by using the table centrifuge (TOMY SEIKO made) to make pellets. The supernatant was removed, the pellets were washed twice with 10 mL of PBS, and then, transferred to a 1.5 mL Eppendorf tube. The pellets were dissolved in 1 ml ISOGENE and left stand at room temperature for 5 minutes and, then, added with 0.2 mL of chloroform (Wako Pure Chemicals), shaken for 15 seconds, and left stand at room temperature for 2 or 3 minutes. Centrifugation was carried out at 4° C. at 10,000 rpm for 15 minutes by using the micro centrifuge (TOMY SEIKO made), 400 μL of the supernatant was transferred to a fresh 1.5 mL Eppendorf tube. 500 μL of isopropanol (Wako Pure Chemicals) was added and the mixture was left stand at room temperature for 10 minutes and, then, was centrifuged at 4° C. at 10,000 rpm for 10 minutes by using the micro centrifuge. The supernatant was removed and, then, 1 mL of a 70% ethanol aqueous solution was added. The mixture was shaken and then was centrifuged at 4° C. at 10,000 rpm for about 5 minutes by using the micro centrifuge. The supernatant was removed and the precipitation was dried and, then, dissolved in 30 μL of distilled water to obtain the total RNA solution.
The cDNA was synthesized by using 2 μg of the total RNA obtained by such the way as the template, using DeoxyribonucleaseI (Amplification Grade) (Invitrogen Corp. made) and SuperScript III First-Strand Synthesis System for RT-PCR (Invitrogen Corp. made, 18080-051) by the attached protocol. In this step, 1 μL of 10× DNaseI Reaction Buffer, 1 μL of 10× DNaseI (all these were of Invitrogen Corp. made) were added to 2 μg of the total RNA to give the total volume of 10 μL by adding distilled water to prepare the reaction solution, and then incubation was carried out at room temperature for 10 minutes. 1 μL of 25 mM EDTA solution was added, and the mixture was heated at 65° C. for 10 minutes and then, cooled to room temperature. 8 μL of the reaction solution was taken out, and 1 μL of […] Oligo(dT) 20 primer and 1 μL of 10 mM dNTP Mix were added, and incubation was carried out at 65° C. for 5 minutes. The reaction solution was placed on ice for 1 minute, and then 2 μL of 10× RT Buffer, 4 μL of 25 mM MgCl2, 2 μL of 0.1 M DTT, 1 μL of RNaseOUT (Invitrogen Corp. made) and 1 μL of SuperScript III RT were added for incubation at 50° C. for 50 minutes. Subsequently, incubation was carried out at 85° C. for 5 minutes, and then the mixture was left stand on ice for 1 min. […] The expression level of the Nanog gene and the glyceraldehyde-3-phosphate dehydrogenase (GAPDH) gene as the internal standard were measured. […]

## COc1cccc(N=NC(C(N)=O)=C2NC(C)(C)Cc3ccccc32)c1 [D, 2-(3,3-dimethyl-3,4-dihydro-2H-isoquinoline-1-ylidene)-2-(3-methoxy-phenylazo)-acetamide]
Oct-3/4 gene; GAPDH internal standard, FIG. 6
  expression of Oct-3/4 gene in comparison with ES cells cultured in the medium without the differentiation inhibiting agent: significantly promoted
Oct-3/4 gene; compared with 1,000 units/mL of ESGRO
  effect of keeping the expression of the Oct-3/4 gene relative to ESGRO: comparable with 1,000 units/mL of ESGRO
Nanog gene
  expression level of Nanog gene in comparison with medium without agent and medium containing 1,000 units/mL of ESGRO: increased similarly to the differentiation inhibiting agents B
